Data as given in patent US20230381162A1, “TREATMENTS OF ANGIOEDEMA” (KALVISTA PHARMACEUTICALS LIMITED, priority 2020, published 2023).

How the values were obtained:
[1] = higher doses; cited from earlier work
[2] = Phase 1 single ascending dose study: plasma concentrations (PK); format: in vivo, human; conditions: oral capsule, fasted, 5 mg to 600 mg
Experimental: (§1) This study was a randomized, double-blind, placebo-controlled single ascending dose (SAD) and crossover studies for food effect and capsule/tablet formulations.
Samples for pharmacokinetic (PK) and PD assessment were taken at repeated intervals over 48 hours.
Plasma samples used for PK assessment were analysed using a validated liquid chromatography tandem mass spectrometry (LC MS/MS) method.

[3] = Phase 2 study: safety (adverse events); format: in vivo, human
Experimental: In Part 1, subjects received a single oral dose of 600 mg of the compound to investigate the safety, PK and PD of the compound during the intercritical period between HAE attacks.
(§2) In Part 2, the subjects were randomized 1:1 to 2 treatment sequences. This part of the study was conducted away from the clinic or hospital. In Sequence 1 (study arm 1) subjects received a single dose of 600 mg of the compound to treat the first eligible HAE attack. Following resolution of this attack, subjects received a single dose of placebo to treat the second eligible HAE attack.
Safety Variables: • AEs, including serious adverse events (SAEs). • Laboratory test results (clinical chemistry, hematology, coagulation, and urinalysis). • Vital signs (SBP, DBP, PR, RR, body temperature). • Physical examination findings. • ECG results. • Pregnancy test (female subjects of child-bearing potential).
AEs were coded using the Medical Dictionary for Regulatory Activities (MedDRA) dictionary (v21.0 or higher) and classified by preferred term and system organ class (SOC). Listings of treatment-emergent adverse events (TEAEs), serious TEAEs, and TEAEs causing premature discontinuation will be provided by sequence group, and further classified by TEAE severity and relationship to study drug.

[4] = Phase 1 multiple dose study in healthy adult subjects: safety, ECG; format: in vivo, human; conditions: 3 x 600 mg every 8, 4 or 2 hours, total 1800 mg
Experimental: This is a phase 1, double-blind, placebo-controlled, multiple-dose, multiple-cohort study to evaluate safety and tolerability of the compound as well as of the ECG effects of the compound formulated as 100 mg Film Coated Tablets in healthy adult male and female subjects.
During the study, oral doses of 600 mg of the compound as Film Coated Tablets (six 100 mg tablets) or 6 matching placebo tablets will be administered once every 8 hours (Cohort 1) every 4 hours (Cohort 2), or every 2 hours (Cohort 3 and 4) to healthy adult male and female subjects up to a total dose of 1800 mg. In Cohorts 1, 2 and 3, 6 subjects will receive the compound as 100 mg Film Coated Tablets and 2 subjects will receive the placebo for a total of 8 subjects per cohort. In Cohort 4, 12 subjects will receive the compound as 100 mg Film Coated Tablets and 6 subjects will receive the placebo for a total of 18 subjects.
A Holter monitor will be attached to each subject in order to continuously record ECGs. The monitor will be attached 1 hour before the first dose and will remain attached until after the final blood sample collection. The electrodes for the Holter monitor will be checked by a member of the clinic staff at appropriate intervals to ensure they are attached.

[5] = Phase 1 single ascending dose study: safety and tolerability; format: in vivo, human; conditions: phase I trial, healthy males
Text: as §1

[6] = system: angioedema attacks in adult subjects with hereditary angioedema type I or II; assay: Phase 2 study Part 2: on-demand treatment of HAE attacks, efficacy; format: in vivo, human; conditions: 600 mg
Experimental: This was a phase 2, two-part, two-sequence, two-period (2×2) cross-over clinical trial. Subjects with HAE type I or II were recruited through HAE treatment centres in Europe and US.
as §2
In Sequence 2 (study arm 2) subjects received a single dose of placebo to treat the first eligible HAE attack. Following resolution of this attack, subjects received a single dose of 600 mg of the compound to treat the second eligible HAE attack.
Laryngeal or facial attacks were not eligible for treatment. HAE attacks must have been treated within the first hour of onset and before reaching severe on the global attack severity scale. Subjects must also have been able to identify the start of a HAE attack. Upon onset of the eligible HAE attack, subjects notified the dedicated study physician or qualified designee with a description of the HAE attack. The dedicated study physician or qualified designee confirmed eligibility of the HAE attack and agreed to study drug being administered. HAE attacks required documentation, on the Subject Diary, of attack location, attack symptoms, time of onset, attack severity, and time of last substantial meal prior to dosing. Subjects took study drug, as instructed, and completed timed assessments of their HAE attack symptoms for a 48 h period as documented below in Table 3. The dedicated study physician or qualified designee contacted the subject within 24 h of the eligible HAE attack to confirm the subject's safety and wellbeing. Subjects were instructed to contact the dedicated study physician or qualified designee in case of any safety concerns. In the case of hypersensitivity, subjects contacted the dedicated study physician or qualified designee or contact the nearest emergency service. The dedicated study physician or qualified designee was available 24 h/day and 7 days/week to receive subject calls.
Time to use of conventional attack treatment was assessed. The subject diary captured the efficacy endpoints including time to use of conventional attack treatment and HAE attack severity.
Overall HAE attack severity was assessed on a 5-point Likert scale (5LS) scored as none, mild, moderate, severe and very severe.
Change in HAE attack severity was assessed using a 7-point transition question (7TQ), scored as Much better/Better/A little better/No change/A little worse/Worse/Much worse.
The type of HAE attack symptoms (abdominal pain, skin pain and skin swelling) was each assessed on a 100 mm visual analogue scale (VAS) anchored at 0 (none) and 100 (very severe).
The primary endpoint, time to use of conventional attack treatment, was analyzed using a generalization of Gehan's test proposed by Feingold and Gillespie (1996) (Crossover trials with censored data. Statistics in Medicine 1996; 15(10): 953-967) to reflect the repeat measures on each subject. Subjects were treated as censored if no worsening occurs within 12 h of study drug.
The proportion of HAE attacks that worsen by one level or more on the 5LS or that require conventional attack treatment within 12 h of study drug was analyzed using Prescott's test (1981) (The comparison of success rates in cross-over trials in the presence of an order effect. Applied Statistics 1981; 30: 9-15) to compare the treatment arms.
A similar approach to that used for the primary endpoint was followed for the analysis of the time between study drug and HAE attack worsening by one level or more on the 5LS or use of conventional attack treatment, whichever comes first within 12 h. […]

Human plasma kallikrein = target: T1, Human plasma kallikrein (Homo sapiens, UniProt P03952); assay: Plasma kallikrein inhibitory activity in vitro (purified enzyme, fluorogenic substrate); format: biochemical
T1 construct: purchased Protogen
Experimental: Human plasma kallikrein (Protogen) was incubated at 25° C. with the fluorogenic substrate H-DPro-Phe-Arg-AFC and various concentrations of the test compound. Residual enzyme activity (initial rate of reaction) was determined by measuring the change in […] at 410 nm and the IC50 value for the test compound was determined.

[7] = target: PKa in DXS-activated plasma (Homo sapiens, UniProt P03952); assay: Catalytic activity of PKa in dextran sulfate-activated plasma (inhibitor added in vitro); format: biochemical; conditions: read-out: IC50 plasma enzyme
Experimental: Catalytic activity of PKa in dextran sulfate-activated (DXS, Sigma; 10 μg/ml) plasma (1:4 diluted or undiluted, VisuCon-F control plasma, Affinity Biologicals Inc) was determined by the time-dependent hydrolysis of fluorogenic substrate.

purified PKa = purified PKa (Homo sapiens, UniProt P03952); assay: Rate of formation of the enzyme-inhibitor complex (Kon) with purified PKa; format: biochemical
Experimental: The rate of formation of the enzyme-inhibitor complex (Kon) was determined using purified PKa rapidly mixed with a solution containing fluorogenic substrate and a concentration range of inhibitor. The time-dependent establishment of inhibition was then used to calculate the rate of formation of the enzyme-inhibitor complex for each concentration of inhibitor. The Kon was calculated by plotting the rate of inhibition versus the inhibitor concentration. Data in Table 1 are presented in μM^−1 sec^−1.

[8] = target: T2, plasma kallikrein activity in pre-activated plasma (Homo sapiens, UniProt P03952); assay: Inhibition of enzyme activity of pre-activated undiluted plasma (inhibitor added after DXS); format: biochemical; conditions: compound 300, 1000, 3000 nM; C1-INH 3000 nM; added 3.5 minutes post DXS (FIG. 3B)
T2 construct: from tissue
Experimental: The ability of the compound to inhibit the enzyme activity of pre-activated plasma was assessed by addition of the compound after DXS stimulation. Aliquots of plasma (20 μL) were mixed with a 2.5 μL solution containing […] fluorogenic substrate (H-DPro-Phe-Arg-AFC) and a 2.5 μL solution of dextran sulphate (DXS; 100 μg/mL) which acted as an activator of the plasma kallikrein-kinin pathway. Enzyme activity was immediately measured by monitoring the accumulation of fluorescence liberated from the substrate by substrate cleavage over 16 minutes. At 3.5 minutes post DXS addition 5 μl of inhibitors or water control are were added into each well. The compound was tested at concentrations of 300, 1000 and 3000 nM. C1-INH at a concentration of 3000 nM and vehicle controls were also included.

[9] = human, in vivo; cited from earlier work

T1 sequence (P03952 391-638 limits assumed): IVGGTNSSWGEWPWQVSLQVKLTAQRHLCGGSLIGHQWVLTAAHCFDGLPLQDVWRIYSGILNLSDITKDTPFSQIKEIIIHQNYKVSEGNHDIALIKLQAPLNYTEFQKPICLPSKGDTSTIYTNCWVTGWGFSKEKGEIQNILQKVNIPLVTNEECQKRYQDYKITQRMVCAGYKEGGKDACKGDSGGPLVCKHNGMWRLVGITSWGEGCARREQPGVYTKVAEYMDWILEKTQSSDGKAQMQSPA
T1 sequence (P03952 20-390 partner limits assumed): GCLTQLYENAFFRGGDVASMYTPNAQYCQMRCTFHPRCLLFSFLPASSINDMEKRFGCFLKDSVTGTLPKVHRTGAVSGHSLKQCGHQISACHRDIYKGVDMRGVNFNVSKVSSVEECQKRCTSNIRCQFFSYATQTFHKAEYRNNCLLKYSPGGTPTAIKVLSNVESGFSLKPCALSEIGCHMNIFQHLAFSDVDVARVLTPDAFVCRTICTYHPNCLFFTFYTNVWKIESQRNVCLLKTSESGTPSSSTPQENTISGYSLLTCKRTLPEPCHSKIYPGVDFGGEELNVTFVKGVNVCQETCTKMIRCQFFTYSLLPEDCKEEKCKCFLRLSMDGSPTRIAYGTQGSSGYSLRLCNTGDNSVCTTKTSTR
T2 sequence (P03952 391-638 limits assumed): as the sequence (P03952 391-638 limits assumed) above
T2 sequence (P03952 20-390 partner limits assumed): as the sequence (P03952 20-390 partner limits assumed) above
PKa in DXS-activated plasma, sequence (P03952 391-638 limits assumed): as the sequence (P03952 391-638 limits assumed) above
PKa in DXS-activated plasma, sequence (P03952 20-390 partner limits assumed): as the sequence (P03952 20-390 partner limits assumed) above
purified PKa, sequence (P03952 391-638 limits assumed): as the sequence (P03952 391-638 limits assumed) above
purified PKa, sequence (P03952 20-390 partner limits assumed): as the sequence (P03952 20-390 partner limits assumed) above

N#Cc1cccc([C@@H](NCC2CC2)c2ccc(F)c(NC(=O)c3cc(C(F)(F)F)nn3-c3cccc(CN)c3)c2)c1 [berotralstat]
gastrointestinal adverse effects [1]: more gastrointestinal adverse effects

COCc1nn(Cc2ccc(Cn3ccccc3=O)cc2)cc1C(=O)NCc1nccc(OC)c1F [compound of Formula A, N-[(3-fluoro-4-methoxypyridin-2-yl)methyl]-3-(methoxymethyl)-1-({4-[(2-oxopyridin-1-yl)methyl]phenyl}methyl)pyrazole-4-carboxamide]
plasma exposure [2]: rapid and dose-dependent plasma exposure | on-treatment drug-related TEAEs, number of events ([3]; Part 1, open-label, 600 mg): 8 | patients with on-treatment drug-related TEAEs ([3]; Part 1, open-label, 600 mg): 5 patients | on-treatment drug-related TEAEs, number of events ([3]; Part 2, crossover, 600 mg): 3 | serious adverse events ([3]; phase 2 trial): no serious adverse events | withdrawals due to adverse events ([3]; phase 2 trial): no patients withdrew due to adverse events | discontinuations because of an AE [4]: no subjects were discontinued because of an AE | effects on the studied ECG parameters [4]: No clinically relevant effects | serious adverse events [4]: No serious adverse events | severity of all reported adverse events [4]: mild | serious adverse events [5]: No serious adverse events | tolerability signals [5]: no tolerability signals | median time for attacks to be rated better or higher (7TQ) [6]: 5 h | median time to onset of symptom relief on PGI-C (7TQ) [6]: 1.6 h | median time to symptom relief, composite VAS score [6]: 6 h | attacks rescued (use of rescue medication) ([6]; at 12 hours): 15.1% | use of rescue medication ([6]; at 24 hours): 20.8% | attacks improved to none on PGI-S (5LS) ([6]; within 12 hours): 56.6% | attacks rated a little better or higher (7TQ) ([6]; within 12 hours): 83.0% | attacks rated better or higher (7TQ) ([6]; within 12 hours): 58.7% | attacks that do not worsen ([6]; within 12 hours): 79.2% | attacks improved to none on PGI-S (5LS) ([6]; within 24 hours): 66.0% | attacks rated a little better or higher (7TQ) ([6]; within 24 hours): 84.9% | attacks rated better or higher (7TQ) ([6]; within 24 hours): 67.9% | attacks that do not worsen (5LS) ([6]; within 24 hours): 69.8%

C1-INH: C1 inhibitor (C1-INH, Sigma Cat #E0518), used as a therapeutic benchmark for HAE [Compound C1-INH]
IC50 (Human plasma kallikrein): 50 nM | IC50 [7]: 1700 nM | Kon (purified PKa): 40000 M⁻¹ s⁻¹ | inhibition of enzyme activity on addition after activation of plasma [8]: slower action

Ecallantide
anaphylactic reactions [9]: risks of anaphylactic reactions have been reported
